Measured values from ChEMBL document CHEMBL3525920, “CYP4F enzymes are responsible for the elimination of fingolimod (FTY720), a novel treatment of relapsing multiple sclerosis” (Drug Metab Dispos, 2011).

Legend:
Cytochrome P450 2C8 = Cytochrome P450 2C8 (Homo sapiens, UniProt P10632); assay: Activity at CYP2C8 in human liver microsomes isolated from donors assessed as metabolite formation after 24 mins by HPLC-RA analysis; assay type: ADME; conditions: 0.4 h
[1] = Retention time of the compound by symmetry C18 column based LC-MS analysis; assay type: physicochemical
[2] = Drug metabolism in human liver cytosol assessed as metabolite formation by HPLC-RA analysis; assay type: ADME, tissue-based
Cytochrome P450 2E1 = Cytochrome P450 2E1 (Homo sapiens, UniProt P05181); assay: Activity at CYP2E1 in human liver microsomes isolated from donors assessed as metabolite formation after 24 mins by HPLC-RA analysis; assay type: ADME; conditions: 0.4 h
Cytochrome P450 3A5 [3] = target: T1, Cytochrome P450 3A5 (Homo sapiens, UniProt P20815); assay: Activity at CYP3A5 in human liver microsomes isolated from donors assessed as metabolite formation after 24 mins by HPLC-RA analysis; assay type: ADME; conditions: 0.4 h
[4] = Activity at FMO in human liver microsomes isolated from donors assessed as metabolite formation after 24 mins by HPLC-RA analysis; assay type: ADME; conditions: 0.4 h
Cytochrome P450 3A4 = Cytochrome P450 3A4 (Homo sapiens, UniProt P08684); assay: Activity at human recombinant CYP3A4 expressed in baculovirus-infected BTI-TN-5B1-4 insect cell microsomes assessed as metabolite formation at 5 to 100 uM after 30 mins by HPLC-RA analysis; assay type: ADME; conditions: bti-tn-5b1-4, 0.5 h
Cytochrome P450 4F12 [5] = target: T2, Cytochrome P450 4F12 (Homo sapiens, UniProt Q9HCS2); assay: Activity at human recombinant CYP4F12 expressed in baculovirus-infected BTI-TN-5B1-4 insect cell microsomes assessed as metabolite formation at 5 to 100 uM after 30 mins by HPLC-RA analysis; assay type: ADME; conditions: bti-tn-5b1-4, 0.5 h
Cytochrome P450 2A6 = Cytochrome P450 2A6 (Homo sapiens, UniProt P11509); assay: Activity at human recombinant CYP2A6 expressed in baculovirus-infected BTI-TN-5B1-4 insect cell microsomes assessed as metabolite formation at 5 to 100 uM after 30 mins by HPLC-RA analysis; assay type: ADME; conditions: bti-tn-5b1-4, 0.5 h
Cytochrome P450 2C9 = Cytochrome P450 2C9 (Homo sapiens, UniProt P11712); assay: Activity at human recombinant CYP2C9 expressed in baculovirus-infected BTI-TN-5B1-4 insect cell microsomes assessed as metabolite formation at 5 to 100 uM after 30 mins by HPLC-RA analysis; assay type: ADME; conditions: bti-tn-5b1-4, 0.5 h
Cytochrome P450 2J2 = Cytochrome P450 2J2 (Homo sapiens, UniProt P51589); assay: Activity at human recombinant CYP2J2 expressed in baculovirus-infected BTI-TN-5B1-4 insect cell microsomes assessed as metabolite formation at 5 to 100 uM after 30 mins by HPLC-RA analysis; assay type: ADME; conditions: bti-tn-5b1-4, 0.5 h
Cytochrome P450 3A5 [6] = target: T1, Cytochrome P450 3A5; assay: Activity at human recombinant CYP3A5 expressed in baculovirus-infected BTI-TN-5B1-4 insect cell microsomes assessed as metabolite formation at 5 to 100 uM after 30 mins by HPLC-RA analysis; assay type: ADME; conditions: bti-tn-5b1-4, 0.5 h
Cytochrome P450 3A7 = Cytochrome P450 3A7 (Homo sapiens, UniProt P24462); assay: Activity at human recombinant CYP3A7 expressed in baculovirus-infected BTI-TN-5B1-4 insect cell microsomes assessed as metabolite formation at 5 to 100 uM after 30 mins by HPLC-RA analysis; assay type: ADME; conditions: bti-tn-5b1-4, 0.5 h
Liver microsome [7] = assay: Drug metabolism in human liver microsomes assessed as metabolite M12 (2-amino-2-(4-(8-hydroxyoctyl)phenethyl)propane-1,3-diol) formation at 20 uM after 30 mins by HPLC-RA analysis in presence of NADPH; assay type: ADME; conditions: 0.5 h
Liver microsome [8] = assay: Drug metabolism in human liver microsomes assessed as total metabolite formation at 1 to 50 uM after 20 mins by HPLC-RA analysis in presence of CYP3A4 inhibitor ketoconazole; assay type: ADME
Liver microsome [9] = assay: Drug metabolism in human liver microsomes assessed as total metabolite formation at 1 uM after 20 mins by HPLC-RA analysis in presence of 10 uM CYP3A4 inhibitor ketoconazole; assay type: ADME
Liver microsome [10] = assay: Drug metabolism in human liver microsomes assessed as total metabolite formation at 1 to 50 uM after 20 mins by HPLC-RA analysis in presence of irreversible CYP3A inhibitor azamulin; assay type: ADME
Liver microsome [11] = assay: Drug metabolism in human liver microsomes assessed as total metabolite formation at 1 to 50 uM after 20 mins by HPLC-RA analysis in presence of mechanism-based CYP1A2 inhibitor furafylline and NADPH; assay type: ADME
Liver microsome [12] = assay: Drug metabolism in human liver microsomes assessed as total metabolite formation at 1 to 50 uM after 20 mins by HPLC-RA analysis in presence of CYP2C8 inhibitor paclitaxel; assay type: ADME
Liver microsome [13] = assay: Drug metabolism in human liver microsomes assessed as total metabolite formation at 1 to 50 uM after 20 mins by HPLC-RA analysis in presence of CYP2C9 inhibitor sulfaphenazole; assay type: ADME
Liver microsome [14] = assay: Drug metabolism in human liver microsomes assessed as total metabolite formation at 1 to 50 uM after 20 mins by HPLC-RA analysis in presence of CYP2C19 inhibitor tranylcypromine; assay type: ADME
Liver microsome [15] = assay: Drug metabolism in human liver microsomes assessed as total metabolite formation at 1 to 50 uM after 20 mins by HPLC-RA analysis in presence of mechanism-based CYP2E1 inhibitor DETC and NADPH; assay type: ADME
Cytochrome P450 4F2 = target: T3, Cytochrome P450 4F2 (Homo sapiens, UniProt P78329); assay: Activity at human recombinant CYP4F2 expressed in baculovirus-infected BTI-TN-5B1-4 insect cell microsomes at 10 uM by HPLC-RA analysis in presence of CYP4F2 and CYP4F12 inhibitor ketoconazole; assay type: ADME; conditions: bti-tn-5b1-4, 10 µM
T3 sequence (P78329 whole entry): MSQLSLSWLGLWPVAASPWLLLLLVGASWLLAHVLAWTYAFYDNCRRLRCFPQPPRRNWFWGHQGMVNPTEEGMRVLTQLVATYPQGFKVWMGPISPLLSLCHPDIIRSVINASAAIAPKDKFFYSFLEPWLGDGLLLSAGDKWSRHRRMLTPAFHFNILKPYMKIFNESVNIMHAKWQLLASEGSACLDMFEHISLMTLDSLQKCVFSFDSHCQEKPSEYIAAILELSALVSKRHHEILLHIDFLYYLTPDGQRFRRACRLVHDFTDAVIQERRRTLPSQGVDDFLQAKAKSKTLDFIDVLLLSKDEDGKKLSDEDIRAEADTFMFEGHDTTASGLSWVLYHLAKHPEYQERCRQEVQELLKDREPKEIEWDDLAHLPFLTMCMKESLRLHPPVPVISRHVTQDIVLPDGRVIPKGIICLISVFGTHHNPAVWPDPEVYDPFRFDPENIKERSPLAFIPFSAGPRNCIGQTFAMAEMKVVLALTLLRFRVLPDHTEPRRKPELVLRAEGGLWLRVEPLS

Cytochrome P450 4F12 [16] = target: T2, Cytochrome P450 4F12; assay: Activity at human recombinant CYP4F12 expressed in baculovirus-infected BTI-TN-5B1-4 insect cell microsomes at 10 uM by HPLC-RA analysis in presence of CYP4F2 and CYP4F12 inhibitor ketoconazole; assay type: ADME; conditions: bti-tn-5b1-4, 10 µM
Liver microsome [17] = assay: Drug metabolism in human liver microsomes assessed as metabolite formation at 50 uM treated 15 mins after antibody addition measured after 20 mins by HPLC-RA analysis in presence of CYP3A4-specific monoclonal antibody; assay type: ADME
Liver microsome [18] = assay: Drug metabolism in human liver microsomes assessed as metabolite formation at 50 uM treated 15 mins after antibody addition measured after 20 mins by HPLC-RA analysis in presence of CYP4F2-specific polyclonal antibody; assay type: ADME

T1 sequence (P20815 whole entry): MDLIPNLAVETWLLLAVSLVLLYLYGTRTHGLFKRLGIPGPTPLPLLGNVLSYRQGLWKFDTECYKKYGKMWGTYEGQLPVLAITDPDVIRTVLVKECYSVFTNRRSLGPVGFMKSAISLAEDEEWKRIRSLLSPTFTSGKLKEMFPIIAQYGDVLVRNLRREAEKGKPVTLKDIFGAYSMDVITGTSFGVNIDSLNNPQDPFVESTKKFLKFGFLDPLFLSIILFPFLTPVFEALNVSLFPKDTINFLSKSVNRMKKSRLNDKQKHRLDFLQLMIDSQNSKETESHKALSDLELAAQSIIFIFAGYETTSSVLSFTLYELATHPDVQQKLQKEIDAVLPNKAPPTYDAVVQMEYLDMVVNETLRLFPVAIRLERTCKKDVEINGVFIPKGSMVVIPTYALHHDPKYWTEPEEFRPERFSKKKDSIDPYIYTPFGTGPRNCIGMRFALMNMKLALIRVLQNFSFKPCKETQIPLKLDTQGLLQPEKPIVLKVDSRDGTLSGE
T2 sequence (Q9HCS2 whole entry): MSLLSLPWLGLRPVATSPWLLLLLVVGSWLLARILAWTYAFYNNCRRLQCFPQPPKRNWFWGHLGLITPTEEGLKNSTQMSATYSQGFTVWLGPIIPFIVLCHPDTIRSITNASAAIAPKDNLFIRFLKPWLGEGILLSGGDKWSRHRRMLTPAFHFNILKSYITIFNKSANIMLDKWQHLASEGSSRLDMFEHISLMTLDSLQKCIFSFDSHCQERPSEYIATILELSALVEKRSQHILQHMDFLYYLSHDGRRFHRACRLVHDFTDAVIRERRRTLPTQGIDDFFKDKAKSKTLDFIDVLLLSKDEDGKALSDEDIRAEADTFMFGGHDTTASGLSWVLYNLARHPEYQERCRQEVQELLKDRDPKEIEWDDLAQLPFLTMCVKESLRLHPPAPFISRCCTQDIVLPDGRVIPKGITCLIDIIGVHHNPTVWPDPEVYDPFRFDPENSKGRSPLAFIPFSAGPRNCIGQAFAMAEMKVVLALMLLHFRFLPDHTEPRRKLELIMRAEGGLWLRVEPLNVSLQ
Sequence of Cytochrome P450 3A4 (P08684 whole entry): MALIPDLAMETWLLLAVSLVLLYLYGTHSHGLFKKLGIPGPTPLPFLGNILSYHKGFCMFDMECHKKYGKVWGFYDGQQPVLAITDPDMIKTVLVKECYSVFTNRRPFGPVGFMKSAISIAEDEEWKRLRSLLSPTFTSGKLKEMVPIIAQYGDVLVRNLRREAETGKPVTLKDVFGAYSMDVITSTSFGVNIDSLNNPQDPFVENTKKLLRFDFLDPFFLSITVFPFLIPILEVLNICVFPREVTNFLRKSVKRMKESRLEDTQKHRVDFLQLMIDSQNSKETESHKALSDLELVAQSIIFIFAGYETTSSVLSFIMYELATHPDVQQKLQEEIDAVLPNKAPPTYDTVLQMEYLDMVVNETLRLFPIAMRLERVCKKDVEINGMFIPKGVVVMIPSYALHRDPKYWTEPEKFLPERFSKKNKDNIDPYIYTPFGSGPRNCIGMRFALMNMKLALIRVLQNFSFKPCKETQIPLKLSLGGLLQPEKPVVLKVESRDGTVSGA
Sequence of Cytochrome P450 2C8 (P10632 whole entry): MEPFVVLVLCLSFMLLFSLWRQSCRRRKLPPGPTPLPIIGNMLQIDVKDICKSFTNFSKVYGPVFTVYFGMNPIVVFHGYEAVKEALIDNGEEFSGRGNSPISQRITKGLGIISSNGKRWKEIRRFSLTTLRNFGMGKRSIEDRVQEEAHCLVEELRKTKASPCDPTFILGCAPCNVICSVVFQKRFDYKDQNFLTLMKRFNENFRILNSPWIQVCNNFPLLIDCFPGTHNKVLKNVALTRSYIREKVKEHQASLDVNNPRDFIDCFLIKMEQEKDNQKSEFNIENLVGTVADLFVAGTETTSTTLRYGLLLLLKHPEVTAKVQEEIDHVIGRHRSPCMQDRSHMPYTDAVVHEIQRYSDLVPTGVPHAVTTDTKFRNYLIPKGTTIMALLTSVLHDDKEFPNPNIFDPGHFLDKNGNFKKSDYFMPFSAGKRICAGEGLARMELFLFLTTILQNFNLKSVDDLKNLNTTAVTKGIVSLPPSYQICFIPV
Sequence of Cytochrome P450 2E1 (P05181 whole entry): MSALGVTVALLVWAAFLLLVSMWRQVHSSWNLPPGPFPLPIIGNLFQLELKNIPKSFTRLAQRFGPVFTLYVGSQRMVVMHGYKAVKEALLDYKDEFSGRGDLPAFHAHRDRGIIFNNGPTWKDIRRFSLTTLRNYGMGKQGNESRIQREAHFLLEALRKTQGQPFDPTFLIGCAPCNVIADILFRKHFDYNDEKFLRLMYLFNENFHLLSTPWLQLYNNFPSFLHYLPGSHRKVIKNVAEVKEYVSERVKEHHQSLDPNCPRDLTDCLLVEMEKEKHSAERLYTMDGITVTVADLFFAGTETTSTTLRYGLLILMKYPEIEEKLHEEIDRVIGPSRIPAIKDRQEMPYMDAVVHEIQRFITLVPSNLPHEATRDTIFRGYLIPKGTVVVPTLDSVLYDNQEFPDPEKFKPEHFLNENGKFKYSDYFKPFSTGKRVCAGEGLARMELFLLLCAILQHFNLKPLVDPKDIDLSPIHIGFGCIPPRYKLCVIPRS
Sequence of Cytochrome P450 2J2 (P51589 whole entry): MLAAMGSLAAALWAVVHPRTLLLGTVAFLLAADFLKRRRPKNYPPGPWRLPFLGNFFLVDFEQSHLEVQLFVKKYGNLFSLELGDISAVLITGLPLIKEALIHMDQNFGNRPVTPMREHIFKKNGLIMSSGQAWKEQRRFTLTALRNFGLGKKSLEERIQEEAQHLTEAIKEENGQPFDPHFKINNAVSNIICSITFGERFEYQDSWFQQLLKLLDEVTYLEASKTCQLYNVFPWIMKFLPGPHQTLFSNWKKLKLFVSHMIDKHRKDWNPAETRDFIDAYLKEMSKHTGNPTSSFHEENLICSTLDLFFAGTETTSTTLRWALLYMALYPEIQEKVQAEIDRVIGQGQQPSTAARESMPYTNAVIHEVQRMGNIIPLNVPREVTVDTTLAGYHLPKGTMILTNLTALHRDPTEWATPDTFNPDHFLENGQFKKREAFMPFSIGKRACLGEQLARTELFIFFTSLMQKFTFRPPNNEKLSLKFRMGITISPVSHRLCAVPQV
Sequence of Cytochrome P450 3A7 (P24462 whole entry): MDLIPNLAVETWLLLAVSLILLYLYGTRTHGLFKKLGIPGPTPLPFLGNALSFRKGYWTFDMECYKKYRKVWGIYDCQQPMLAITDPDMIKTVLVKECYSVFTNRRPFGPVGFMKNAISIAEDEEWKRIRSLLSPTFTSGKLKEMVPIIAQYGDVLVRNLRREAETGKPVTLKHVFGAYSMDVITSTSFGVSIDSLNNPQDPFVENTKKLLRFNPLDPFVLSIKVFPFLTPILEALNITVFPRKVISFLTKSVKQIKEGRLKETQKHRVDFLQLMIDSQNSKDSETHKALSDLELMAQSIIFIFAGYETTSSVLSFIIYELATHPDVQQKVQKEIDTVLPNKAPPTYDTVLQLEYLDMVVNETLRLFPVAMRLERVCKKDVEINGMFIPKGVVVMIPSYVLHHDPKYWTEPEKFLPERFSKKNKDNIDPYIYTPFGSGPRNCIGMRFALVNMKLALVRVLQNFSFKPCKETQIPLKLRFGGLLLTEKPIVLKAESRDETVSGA
Sequence of Cytochrome P450 2A6 (P11509 whole entry): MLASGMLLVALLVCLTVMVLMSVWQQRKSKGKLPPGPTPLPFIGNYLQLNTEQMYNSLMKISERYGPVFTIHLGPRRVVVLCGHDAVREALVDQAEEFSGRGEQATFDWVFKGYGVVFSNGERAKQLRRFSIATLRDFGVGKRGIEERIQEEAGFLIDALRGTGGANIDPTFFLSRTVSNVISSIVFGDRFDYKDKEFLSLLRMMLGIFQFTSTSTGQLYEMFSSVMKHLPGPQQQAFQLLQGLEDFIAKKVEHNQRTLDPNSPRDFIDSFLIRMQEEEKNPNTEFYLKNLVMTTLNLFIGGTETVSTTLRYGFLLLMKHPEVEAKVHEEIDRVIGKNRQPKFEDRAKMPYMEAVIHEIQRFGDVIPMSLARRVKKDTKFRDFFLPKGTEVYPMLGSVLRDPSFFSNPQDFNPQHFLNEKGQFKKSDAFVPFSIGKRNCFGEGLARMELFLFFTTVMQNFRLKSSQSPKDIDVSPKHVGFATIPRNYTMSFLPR
Sequence of Cytochrome P450 2C9 (P11712 whole entry): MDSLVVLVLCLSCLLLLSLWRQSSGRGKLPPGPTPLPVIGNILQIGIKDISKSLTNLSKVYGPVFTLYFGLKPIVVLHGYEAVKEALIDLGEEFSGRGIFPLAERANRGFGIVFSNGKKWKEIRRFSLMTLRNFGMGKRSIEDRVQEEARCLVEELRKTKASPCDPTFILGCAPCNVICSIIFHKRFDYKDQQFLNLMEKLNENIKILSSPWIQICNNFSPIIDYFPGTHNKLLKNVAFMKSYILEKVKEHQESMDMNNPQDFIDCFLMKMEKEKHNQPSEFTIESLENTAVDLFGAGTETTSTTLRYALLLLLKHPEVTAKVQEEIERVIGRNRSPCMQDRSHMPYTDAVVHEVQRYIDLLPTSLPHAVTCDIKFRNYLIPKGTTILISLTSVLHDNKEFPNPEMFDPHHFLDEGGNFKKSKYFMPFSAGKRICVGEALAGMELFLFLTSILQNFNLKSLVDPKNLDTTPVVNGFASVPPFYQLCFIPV

Drug metabolism (Cytochrome P450 2C8): metabolite_not_detected | Retention_time [1]: 42.4 min | Drug metabolism [2]: metabolite_not_detected | Drug metabolism (Cytochrome P450 2E1): metabolite_not_detected | Drug metabolism (Cytochrome P450 3A5 [3]): metabolite_not_detected | Drug metabolism [4]: metabolite_not_detected | Drug metabolism (Cytochrome P450 3A4): metabolite_detected | Drug metabolism (Cytochrome P450 4F12 [5]): metabolite_detected | Drug metabolism (Cytochrome P450 2A6): metabolite_not_detected | Drug metabolism (Cytochrome P450 2C9): metabolite_not_detected | Drug metabolism (Cytochrome P450 2J2): metabolite_not_detected | Drug metabolism (Cytochrome P450 3A5 [6]): metabolite_not_detected | Drug metabolism (Cytochrome P450 3A7): metabolite_not_detected | Drug metabolism (Liver microsome [7]): metabolite_detected | Drug metabolism (Liver microsome [8]): metabolite_not_detected | Drug metabolism (Liver microsome [9]): metabolite_not_detected | Drug metabolism (Liver microsome [10]): metabolite_not_detected | Drug metabolism (Liver microsome [11]): metabolite_detected | Drug metabolism (Liver microsome [12]): metabolite_detected | Drug metabolism (Liver microsome [13]): metabolite_detected | Drug metabolism (Liver microsome [14]): metabolite_detected | Drug metabolism (Liver microsome [15]): metabolite_detected | Drug metabolism (Cytochrome P450 4F2): metabolite_not_detected | Drug metabolism (Cytochrome P450 4F12 [16]): metabolite_not_detected | Drug metabolism (Liver microsome [17]): metabolite_detected | Drug metabolism (Liver microsome [18]): metabolite_not_detected
SMILES: CCCCCCCCc1ccc(CC[14C](N)(CO)CO)cc1.Cl
